Entries after “also recorded” stand apart in the source; their conditions may differ.
Tests used:
[1] = tested on: arthrodial cartilage of the knee joint; test: Rabbit knee cartilage injury model: observation by bare eyes and histomorphometry; format: in vivo, New Zealand white rabbits; conditions: intra-articular 250 ppm/kg once every 7 days
Experimental: (§1) Fifteen (15) healthy adult New Zealand white rabbits were randomly divided into three (3) groups: a normal control group (Group A), a model control group (Group B) and a test group subject to intra-articular injection of a test peptide (Group C), with five (5) rabbits included in each of the groups. Fasting was conducted within four hours before surgical operations. Ketamine (10 mg/kg) and atropine (0.2 mg/kg) were injected in the muscle of each rabbit. After anesthesia took effect, each rabbit was confined to an operating table. An 8 cm-long longitudinal scission was made in the back of each knee before the skin was lifted. From the back of the knee, the articular capsule and synovial were opened. Then, the knee was bent for 90° to expose the cartilage at a lower end of the femur. Two cylindrical cutouts of 3 mm in diameter and 3 mm in depth were made. Coagulation was removed from each of the cutouts. The joint cavity was washed with a sterile saline solution. Stitches were made for each section. After the surgical operation, injection of penicillin was conducted against infection for a week. After five (5) days, each rabbit was able to eat and stand normally.
(§2) Two (2) weeks after the surgical operation, the rabbits of Group A and Group B were not treated, whereas the rabbits of Group C were subject to intra-articular injection of 250 ppm/kg of pentapeptide-3 KTTKS once for every seven (7) days, and the injection lasted for twelve (12) weeks. Articular injection of 0.5 ml of saline was executed, and then 0.2 ml of synovial liquid was collected. The articular capsule was cut and opened, synovial was removed, and an entire tibial joint was taken. Arthropathy in arthrodial cartilage was observed by bare eyes and also via surgical lens. Slices were taken, dyed by hematoxylin and eosin stain (HE Stain) and toluidine blue, and then observed in an optical microscope.

[2] = tested on: NO, SOD and MDA in synovial liquid; test: Biochemical indicators (NO, SOD, MDA) in synovial liquid of the rabbit model; format: in vivo, New Zealand white rabbits
Text: As used in the present invention, all of the methods for measuring SOD, NO and MDA in synovial liquid and collagen and proteoglycan in extracellular matrix of cartilage have been known and conventionally used in the art.
as §1, §2

[3] = tested on: cartilage cells of the growth plate; test: Cultivated cartilage cells: DNA content, collagen and proteoglycan production; format: cell-based, rabbits; conditions: 250 ppm; samples after 3, 7 and 14 days
Experimental: Firstly, cartilage cells of the growth plate of the same rabbits were taken and continuously cultivated. The cultivated cells were divided into three groups. In Group I, only 250 ppm of pentapeptide-3 KTTKS was added. In Group II, only 100 ng/ml of collagen was added. In Group III, 250 ppm of pentapeptide-3 KTTKS and 100 ng/ml of collagen were added. A negative control group was also used. After new tissues of cartilage grew at a lower portion of a centrifuge tube, the new tissues were transferred to a 24-well platefor continuing cultivation, wherein the culture medium was replaced for every 2 days. During the cultivation, samples were collected after three (3), seven (7) and fourteen (14) days, and then were analyzed.
For the histological and histochemical measurements, samples were collected, and HE dying and immunochemical measurement (S-P method) were executed.
The content of DNA in the cells of cartilage was determined by the method of Hoechst 33258.
Extracellular matrix of cartilage primarily comprises collagen and proteoglycan composed of glycosaminoglycan and core protein, in addition to water. The content of the matrix and its status of the metabolism were quantitatively analyzed by determining a level of the collagen and proteoglycan in the new tissues of cartilage.
The synthesis of the collagen of the cartilage is measured by the hydroxyproline method. Because the content of hydroxyproline in the collagen was substantially constant (about 10% by weight), an amount of hydroxyproline could be used to analyze the amount of the collagen of the cartilage by using a commercial kit including the hydroxyproline reagent. The content of the collagen in the samples was calculated.

[4] = Group C: intra-articular injection of 250 ppm/kg once every 7 days for 12 weeks
[5] = intra-articular 250 ppm/kg once every 7 days, 12 weeks

pentapeptide-3 KTTKS (printed: Lys-Thr-Thr-Lys-Ser) [pentapeptide Lys-Thr-Thr-Lys-Ser; test peptide injected intra-articularly in Group C]
Histomorphometric observation of repaired tissues (HE stain, toluidine blue) ([1]; after 12 weeks): the repaired tissues were not substantially different from the normal tissues of the knee joint; also recorded: considerably repaired the damaged tissues of cartilage
Repair of knee joint injuries observed by bare eyes ([1]; after 12 weeks): the injuries were completely repaired
Morphosis of the arthrodial cartilage compared with model control Group B ([1]; 12 weeks): significant improvement
MDA level in synovial liquid [2, 4]: 15.23 ± 5.62 c/mol · L^−1
NO level in synovial liquid [2, 4]: 25.11 ± 3.65 c/mol · L^−1
SOD level in synovial liquid [2, 4]: 6.18 ± 2.17 c/mol · L^−1
Change of MDA level in synovial liquid compared with model control Group B [2, 5]: considerably reduced
Change of SOD level in synovial liquid compared with model control Group B [2, 5]: considerably increased
Content of DNA of the cells of the cartilage versus control group (Hoechst 33258, FIG. 1) [3]: statistically different from that of the control group
Hyperosteogeny of the cells of the cartilage [3]: considerable hyperosteogeny
Production of collagen in cartilage tissue (hydroxyproline method, FIG. 2) [3]: considerably increased
Production of proteoglycan of cartilage tissue (FIG. 3) [3]: considerably increased

Source: patent publication US20180194805A1, “USE OF PENTAPEPTIDE-3 KTTKS OR HEXAPEPTIDE-3 KTTKSF FOR TREATING DEGENERATIVE JOINT DISEASE” (Advanced Healthtech Biopeptide Laboratories Co., LTD., priority 2017, published 2018)
